What all share (format): in vivo, C57BL/6 mice
The subject of assay [1] is mice with tumors induced by MC38 colorectal cancer cells. Nature of the assay: Food intake of MC38 tumor-bearing mice. The settings on record: oral 14 days, extract 100 mg/kg, Megace 125 mg/kg, mean ± standard deviation. As for the experimental part:
(§1) As experimental animals, 4-week-old male C57BL/6 mice (weighed 18 to 20 g) were purchased from Central Lab Animal Inc., acclimated in a laboratory animal facility for 1 week, and then used in the experiment. During the experiment, the animals were allowed to access feed and water ad libitum, and housed at cages at a temperature of 22±2° C. and a relative humidity of 60±5% under a 12-hr light/12-hr dark cycle.
(§2) The mice were divided into a normal group (healthy group), a control group (tumor-induced group), a conventional drug-administered group and a Paeoniae radix extract-administered group, each group consisting of 9 animals. […] During the experiment, the food uptake of each mouse was recorded. In addition, the muscle strength of each mouse was measured with a grip strength test device (Bioseb, USA), and the endurance of each mouse was measured under the condition of maximum exercise time of 600 seconds using a treadmill device (Columbus Instrument, USA).
(§3) While the Paeoniae radix extract was administered orally to the mice for 14 days after tumor induction, the food intake of the mice was recorded. […]

Assay [2] has as its system mice with tumors induced by Lewis lung carcinoma (LLC) cells. Nature of the assay: Food intake and body weight of LLC tumor-bearing mice. The settings on record: oral 14 days, extract 100 mg/kg, Megace 125 mg/kg, mean ± standard deviation. The protocol:
as §1, §2, §3

In assay [3] the test system is MC38 colorectal cancer cells. Description: Tumor weight, MC38 tumor-bearing mice. The conditions noted are these: oral 14 days, extract 100 mg/kg, Megace 125 mg/kg, mean ± standard deviation. As for the experimental part: as §2, with “animals. Each animal of the normal group was injected subcutaneously with 100 μl of PBS, and the tumor-induced group (control group), the conventional drug-administered group and the Paeoniae radix extract-administered group were injected subcutaneously with MC38 colorectal cancer cells (1×10^6 cells/100 μl) or Lewis lung carcinoma (LLC) cells (1×10^6 cells/100 μl).” for “animals.”
(§4) After completion of the experiment, the mice were euthanized, blood was collected therefrom, and then the tumor weight and the hind limb muscle weight were measured, and the serum and muscle concentrations of TNF-α, IL-6, IL-1 and MCP-1 were quantified by ELISA assay. […]
(§5) After the Paeoniae radix extract was administered orally to the mice for 14 days after tumor induction, the mice were euthanized and the tumor weight was measured. […]

Assay [4] concerns Lewis lung carcinoma (LLC) cells. Description: Tumor weight, LLC tumor-bearing mice. The settings on record: oral 14 days, extract 100 mg/kg, Megace 125 mg/kg, mean ± standard deviation. The protocol:
as §2, with “animals. Each animal of the normal group was injected subcutaneously with 100 μl of PBS, and the tumor-induced group (control group), the conventional drug-administered group and the Paeoniae radix extract-administered group were injected subcutaneously with MC38 colorectal cancer cells (1×10^6 cells/100 μl) or Lewis lung carcinoma (LLC) cells (1×10^6 cells/100 μl).” for “animals.”
as §4, §5

For the next assay, the system named is IL-6. Nature of the assay: Serum and muscle inflammatory cytokine ELISA, MC38 tumor-bearing mice. The settings on record: oral 14 days, extract 100 mg/kg, Megace 125 mg/kg, mean ± standard deviation. The protocol: as §2, with “animals. Each animal of the normal group was injected subcutaneously with 100 μl of PBS, and the tumor-induced group (control group), the conventional drug-administered group and the Paeoniae radix extract-administered group were injected subcutaneously with MC38 colorectal cancer cells (1×10^6 cells/100 μl) or Lewis lung carcinoma (LLC) cells (1×10^6 cells/100 μl).” for “animals.”
as §4
After the Paeoniae radix extract was administered orally to the mice for 14 days after tumor induction, the mice were euthanized and the serum and muscle concentrations of inflammatory cytokines were measured. […]
(An ELISA detects its analyte on a solid surface through an enzyme-linked reagent.)

The subject of a further assay is TNF-α, IL-6, MCP-1. Description: Serum and muscle inflammatory cytokine ELISA, LLC tumor-bearing mice. The conditions noted are these: oral 14 days, extract 100 mg/kg, Megace 125 mg/kg, mean ± standard deviation. The protocol: The mice were divided into a normal group (healthy group), a control group (tumor-induced group), a conventional drug-administered group and a Paeoniae radix extract-administered group, each group consisting of 9 animals. Each animal of the normal group was injected subcutaneously with 100 μl of PBS, and the tumor-induced group (control group), the conventional drug-administered group and the Paeoniae radix extract-administered group were injected subcutaneously with MC38 colorectal cancer cells (1×10^6 cells/100 μl) or Lewis lung carcinoma (LLC) cells (1×10^6 cells/100 μl). When the tumor volume reached about 1,000 mm^3 after 2 weeks of tumor induction, the cancer cachexia treatment agent Megace (megestrol acetate), which is most frequently used in current clinical practice, was administered orally to the conventional drug-administered group. Dose of Megace was 125 mg/kg (=625 mg [daily human dose]/60 kg [human's average body weight]×12 [human/mouse body surface area dose equivalent factor]) for 14 days. Paeoniae radix extract prepared in Example 1 was administered orally to the Paeoniae radix extract-administered group for 14 days at a dose of 100 mg/kg, which is slightly lower than the dose of Megace. During the experiment, the food uptake of each mouse was recorded. In addition, the muscle strength of each mouse was measured with a grip strength test device (Bioseb, USA), and the endurance of each mouse was measured under the condition of maximum exercise time of 600 seconds using a treadmill device (Columbus Instrument, USA).
After completion of the experiment, the mice were euthanized, blood was collected therefrom, and then the tumor weight and the hind limb muscle weight were measured, and the serum and muscle concentrations of TNF-α, IL-6, IL-1 and MCP-1 were quantified by ELISA assay. In addition, the effect of the Paeoniae radix extract on the reduction of muscle atrophy factor (MAFbx) in the hind limb muscle of each LCC cancer-bearing mouse was measured using Western blot and immunofluorescence known in the art.
After the Paeoniae radix extract was administered orally to the mice for 14 days after tumor induction, the mice were euthanized and the serum and muscle concentrations of inflammatory cytokines were measured. As a result, as shown in Table 4 below and FIGS. 2 and 8, the concentrations of tumor-induced inflammatory cytokines increased in the control group (tumor-induced group) compared to the normal (healthy) group.

Assay [5] relates to mice with tumors induced by MC38 colorectal cancer cells. Description: Grip strength test, MC38 tumor-bearing mice. The settings on record: grip strength on day 12 of oral treatment, extract 100 mg/kg, Megace 125 mg/kg, mean ± standard deviation. As for the experimental part: as §2, with “animals. Each animal of the normal group was injected subcutaneously with 100 μl of PBS, and the tumor-induced group (control group), the conventional drug-administered group and the Paeoniae radix extract-administered group were injected subcutaneously with MC38 colorectal cancer cells (1×10^6 cells/100 μl) or Lewis lung carcinoma (LLC) cells (1×10^6 cells/100 μl).” for “animals.”
(§6) On day 12th day of the oral treatment of conventional drug or the Paeoniae radix extract to the tumor-induced mice, the muscle strength and endurance of the mice were measured by a grip strength (g) test and a treadmill running time (sec) test, respectively.

The subject of assay [6] is mice with tumors induced by Lewis lung carcinoma (LLC) cells. Nature of the assay: Grip strength test, LLC tumor-bearing mice. The conditions noted are these: grip strength on day 12 of oral treatment, extract 100 mg/kg, Megace 125 mg/kg, mean ± standard deviation. The protocol:
as §2, with “animals. Each animal of the normal group was injected subcutaneously with 100 μl of PBS, and the tumor-induced group (control group), the conventional drug-administered group and the Paeoniae radix extract-administered group were injected subcutaneously with MC38 colorectal cancer cells (1×10^6 cells/100 μl) or Lewis lung carcinoma (LLC) cells (1×10^6 cells/100 μl).” for “animals.”
as §6

Assay [7] relates to mice with tumors induced by MC38 colorectal cancer cells. Nature of the assay: Treadmill running time test, MC38 tumor-bearing mice. The conditions noted are these: maximum 600 seconds, day 12 of oral treatment, extract 100 mg/kg, Megace 125 mg/kg, mean ± standard deviation. The protocol: as §2, with “animals. Each animal of the normal group was injected subcutaneously with 100 μl of PBS, and the tumor-induced group (control group), the conventional drug-administered group and the Paeoniae radix extract-administered group were injected subcutaneously with MC38 colorectal cancer cells (1×10^6 cells/100 μl) or Lewis lung carcinoma (LLC) cells (1×10^6 cells/100 μl).” for “animals.”
as §6

In assay [8] the test system is mice with tumors induced by Lewis lung carcinoma (LLC) cells. Nature of the assay: Treadmill running time test, LLC tumor-bearing mice. The conditions noted are these: maximum 600 seconds, day 12 of oral treatment, extract 100 mg/kg, Megace 125 mg/kg, mean ± standard deviation. As for the experimental part: as §2, with “animals. Each animal of the normal group was injected subcutaneously with 100 μl of PBS, and the tumor-induced group (control group), the conventional drug-administered group and the Paeoniae radix extract-administered group were injected subcutaneously with MC38 colorectal cancer cells (1×10^6 cells/100 μl) or Lewis lung carcinoma (LLC) cells (1×10^6 cells/100 μl).” for “animals.”
as §6

With `CC(=O)O[C@]1(C(C)=O)CC[C@H]2[C@@H]3C=C(C)C4=CC(=O)CC[C@]4(C)[C@H]3CC[C@@]21C` [Conventional drug, megestrol acetate], the values for the Food intake in assay [1] and in assay [2] were 2.607 ± 0.357 g and 2.891 ± 0.417 g, respectively. The values for the Tumor weight in assay [3] and in [4] were 11.747 ± 3.073 g and 7.797 ± 2.385 g, respectively. The “Cytokine concentration, Muscle IL-6” value with IL-6 worked out at 156.167 ± 29.486 pg/mL. Moreover, the “Cytokine concentration, Serum IL-6” value with IL-6 was 49.222 ± 22.762 pg/mL; with TNF-α, IL-6, MCP-1, 15.616 ± 8.902 pg/mL. Further, the “Cytokine concentration, Muscle TNF-α” value in the assay with TNF-α, IL-6, MCP-1 was determined as 21.910 ± 5.414 pg/mL. In addition, in the assay with TNF-α, IL-6, MCP-1, the “Cytokine concentration, Serum MCP-1” value was 431.670 ± 191.640 pg/mL. The “Cytokine concentration, Serum TNF-α” value in the assay with TNF-α, IL-6, MCP-1 stood at 3.302 ± 0.422 pg/mL. Further, the figures for the Muscle strength in [5] and in assay [6] were 172.065 ± 28.210 g and 154.883 ± 17.238 g, respectively. Further, the Endurance amounted to 177.400 ± 60.844 s in assay [7] and 338.333 ± 157.322 s in assay [8].

Values taken from patent US11684650B2, “Composition for preventing, alleviating, or treating cachexia and muscle loss” (CHUNG-ANG UNIVERSITY INDUSTRY ACADEMIC COOPERATION …, priority 2018, dated 2023).
